In patent EP2970215B1, “PYRROLIDINE DERIVATIVES, PHARMACEUTICAL COMPOSITIONS CONTAINING THEM, AND THEIR USE IN THERAPY” (AbbVie Deutschland GmbH & Co. KG, priority 2013, dated 2014):
pKi: −log10 of the molar value.

Molecular target: T1, human GlyT1c transporter (Homo sapiens, UniProt P48067)
T1 construct: expressed in transfected cells; host or cells: CHO cells (recombinant; line hGlyT1c_5_CHO is named for the uptake assay)
T1 sequence (P48067 1-706): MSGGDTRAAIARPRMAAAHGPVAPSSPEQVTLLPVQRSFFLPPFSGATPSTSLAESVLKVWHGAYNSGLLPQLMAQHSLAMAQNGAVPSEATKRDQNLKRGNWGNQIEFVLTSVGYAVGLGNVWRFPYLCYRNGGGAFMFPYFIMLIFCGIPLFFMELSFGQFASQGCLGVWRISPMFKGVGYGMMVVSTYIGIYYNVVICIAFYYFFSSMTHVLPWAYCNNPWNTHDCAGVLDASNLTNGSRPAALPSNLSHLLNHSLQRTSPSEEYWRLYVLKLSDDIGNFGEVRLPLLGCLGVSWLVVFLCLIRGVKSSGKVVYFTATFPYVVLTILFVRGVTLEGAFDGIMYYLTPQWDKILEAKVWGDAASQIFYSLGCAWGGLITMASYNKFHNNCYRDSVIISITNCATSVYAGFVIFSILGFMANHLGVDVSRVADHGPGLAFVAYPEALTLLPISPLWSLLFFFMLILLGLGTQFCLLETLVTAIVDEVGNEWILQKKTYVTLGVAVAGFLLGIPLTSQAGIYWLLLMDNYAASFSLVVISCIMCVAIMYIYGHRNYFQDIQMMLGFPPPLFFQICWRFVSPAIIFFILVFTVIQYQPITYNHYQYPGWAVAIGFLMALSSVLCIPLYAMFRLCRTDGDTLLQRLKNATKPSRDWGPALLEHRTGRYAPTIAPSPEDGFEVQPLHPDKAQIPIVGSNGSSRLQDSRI
Experiment: Radioligand binding assay using recombinant CHO cell membranes expressing human GlyT1
From the text: 2. Radioligand binding assays using recombinant CHO cell membranes expressing human GlyT1: […]

[1] = radioligand binding to human GlyT1c transporter-expressing membranes

| pKi [1] | Compound | pKi (radioligand binding, recombinant CHO cell membranes expressing human GlyT1c) |
| --- | --- | --- |
| ≥ 7.00 | Cn1cnc(S(=O)(=O)N2C[C@@H]([C@@H]3CCCOC3)[C@H](Nc3cccc(OC(F)(F)F)c3)C2)c1 (mixture of isomers) [Example 784, trans-1-[(1-methyl-1H-imidazol-4-yl)sulfonyl]-4-[(3S)-tetrahydro-2H-pyran-3-yl]-N-[3-(trifluoromethoxy)phenyl]pyrrolidin-3-amine] |  |
| ≥ 6.00 | Cn1cnc(S(=O)(=O)N2C[C@@H]([C@@H]3CCCOC3)[C@H](Nc3cccc(Oc4ccccc4)c3)C2)c1 (mixture of isomers) [Example 786, trans-1-[(1-methyl-1H-imidazol-4-yl)sulfonyl]-N-(3-phenoxyphenyl)-4-[(3S)-tetrahydro-2H-pyran-3-yl]pyrrolidin-3-amine] |  |
| ≥ 6.00 | Cn1cnc(S(=O)(=O)N2C[C@@H]([C@@H]3CCCOC3)[C@H](Nc3cccc(-c4ccccc4)c3)C2)c1 (mixture of isomers) [Example 787, trans-N-(biphenyl-3-yl)-1-[(1-methyl-1H-imidazol-4-yl)sulfonyl]-4-[(3S)-tetrahydro-2H-pyran-3-yl]pyrrolidin-3-amine] |  |
| ≥ 6.00 | Cn1cnc(S(=O)(=O)N2C[C@@H]([C@@H]3CCCOC3)[C@H](Nc3ccc(F)c(C(F)(F)F)c3)C2)c1 (mixture of isomers) [Example 791, Trans-N-[4-fluoro-3-(trifluoromethyl)phenyl]-1-[(1-methyl-1H-imidazol-4-yl)sulfonyl]-4-[(3S)-tetrahydro-2H-pyran-3-yl]pyrrolidin-3-amine] |  |
| ≥ 6.00 | COc1ccc([C@@H]2CN(S(=O)(=O)c3cn(C)cn3)C[C@H]2NC(=O)c2cccc(C(F)(F)F)c2Cl)cc1 (relative stereo) [Example 2, 2-chloro-N-{trans-4-(4-methoxyphenyl)-1-[(1-methyl-1H-imidazol-4-yl)sulfonyl]pyrrolidin-3-yl}-3-(trifluoromethyl)benzamide] |  |
| ≥ 7.00 | Cn1cnc(S(=O)(=O)N2C[C@@H](NC(=O)c3cccc(C(F)(F)F)c3Cl)[C@H](c3ccc(F)cc3)C2)c1 (relative stereo) [Example 3, 2-chloro-N-{trans-4-(4-fluorophenyl)-1-[(1-methyl-1H-imidazol-4-yl)sulfonyl]pyrrolidin-3-yl}-3-(trifluoromethyl)benzamide] |  |
| ≥ 5.00 | Cn1cnc(S(=O)(=O)N2C[C@@H](NC(=O)c3cccc(Cl)c3)[C@H](c3ccccc3)C2)c1 (relative stereo) [Example 15, 3-chloro-N-{trans-1-[(1-methyl-1H-imidazol-4-yl)sulfonyl]-4-phenylpyrrolidin-3-yl}benzamide] |  |
| ≥ 6.00 | Cn1cnc(S(=O)(=O)N2C[C@@H](NC(=O)c3ccc(Cl)cc3)[C@H](c3ccccc3)C2)c1 (relative stereo) [Example 16, 4-chloro-N-{trans-1-[(1-methyl-1H-imidazol-4-yl)sulfonyl]-4-phenylpyrrolidin-3-yl}benzamide] |  |
| ≥ 5.00 | COc1ccccc1C(=O)N[C@@H]1CN(S(=O)(=O)c2cn(C)cn2)C[C@H]1c1ccccc1 (relative stereo) [Example 20, 2-methoxy-N-{trans-1-[(1-methyl-1H-imidazol-4-yl)sulfonyl]-4-phenylpyrrolidin-3-yl}benzamide] |  |
| ≥ 5.00 | COc1cccc(C(=O)N[C@@H]2CN(S(=O)(=O)c3cn(C)cn3)C[C@H]2c2ccccc2)c1 (relative stereo) [Example 21, 3-methoxy-N-{trans-1-[(1-methyl-1H-imidazol-4-yl)sulfonyl]-4-phenylpyrrolidin-3-yl}benzamide] |  |
| ≥ 5.00 | Cc1ccc(C(=O)N[C@@H]2CN(S(=O)(=O)c3cn(C)cn3)C[C@H]2c2ccccc2)cc1 (relative stereo) [Example 24, 4-methyl-N-{trans-1-[(1-methyl-1H-imidazol-4-yl)sulfonyl]-4-phenylpyrrolidin-3-yl}benzamide] |  |
| ≥ 6.00 | Cn1cnc(S(=O)(=O)N2C[C@@H](NC(=O)c3ccc(Cl)cc3Cl)[C@H](c3ccccc3)C2)c1 (relative stereo) [Example 26, 2,4-dichloro-N-{trans-1-[(1-methyl-1H-imidazol-4-yl)sulfonyl]-4-phenylpyrrolidin-3-yl}benzamide] |  |

More lines, now with the values behind:

| Compound | pKi [1] | pKi (radioligand binding, recombinant CHO cell membranes expressing human GlyT1c) |
| --- | --- | --- |
| 2-[(1-methyl-1H-imidazol-4-yl)sulfonyl]-N-[4-(trifluoromethyl)pyridin-2-yl]-2,3,3a,8-tetrahydroindeno[1,2-c]pyrrol-8a(1H)-amine [Example 892] |  | ≥ 7.00 |
| COC[C@H](C)NC[C@@H]1CN(S(=O)(=O)c2cn(C)cn2)C[C@H]1c1ccc(F)cc1 (mixture of isomers) [Example 596, (2S)-N-({trans-4-(4-fluorophenyl)-1-[(1-methyl-1H-imidazol-4-yl)sulfonyl]pyrrolidin-3-yl}methyl)-1-methoxypropan-2-amine] | ≥ 5.00 |  |
| Cn1cnc(S(=O)(=O)N2C[C@@H]([C@@H]3CCCOC3)[C@H](Nc3ccc(F)c(OC(F)(F)F)c3)C2)c1 (mixture of isomers) [Example 788, Trans-N-[4-fluoro-3-(trifluoromethoxy)phenyl]-1-[(1-methyl-1H-imidazol-4-yl)sulfonyl]-4-[(3S)-tetrahydro-2H-pyran-3-yl]pyrrolidin-3-amine] | ≥ 6.00 |  |
| Cn1cnc(S(=O)(=O)N2C[C@@H]([C@@H]3CCCOC3)[C@H](Nc3ccc(F)c(Cl)c3)C2)c1 (mixture of isomers) [Example 789, Trans-N-(3-chloro-4-fluorophenyl)-1-[(1-methyl-1H-imidazol-4-yl)sulfonyl]-4-[(3S)-tetrahydro-2H-pyran-3-yl]pyrrolidin-3-amine] | ≥ 6.00 |  |
| Cc1cc(N[C@@H]2CN(S(=O)(=O)c3cn(C)cn3)C[C@H]2[C@@H]2CCCOC2)ccc1F (mixture of isomers) [Example 790, Trans-N-(4-fluoro-3-methylphenyl)-1-[(1-methyl-1H-imidazol-4-yl)sulfonyl]-4-[(3S)-tetrahydro-2H-pyran-3-yl]pyrrolidin-3-amine] | ≥ 6.00 |  |
| Cn1cnc(S(=O)(=O)N2C[C@@H]([C@@H]3CCCOC3)[C@H](Nc3cccc(OCc4ccccc4)c3)C2)c1 (mixture of isomers) [Example 794, Trans-N-[3-(benzyloxy)phenyl]-1-[(1-methyl-1H-imidazol-4-yl)sulfonyl]-4-[(3S)-tetrahydro-2H-pyran-3-yl]pyrrolidin-3-amine] | ≥ 6.00 |  |
| CS(=O)(=O)N1C[C@@H](NC(=O)c2cccc(C(F)(F)F)c2Cl)[C@H](c2cc(F)c(F)cc2F)C1 (relative stereo) [Example 4, 2-chloro-N-[trans-1-(methylsulfonyl)-4-(2,4,5-trifluorophenyl)pyrrolidin-3-yl]-3-(trifluoromethyl)benzamide] | ≤ 5.00 |  |
| Cn1cnc(S(=O)(=O)N2C[C@@H](NC(=O)c3cccc(C(F)(F)F)c3Cl)[C@H](c3ccc(Cl)cc3)C2)c1 (relative stereo) [Example 13, 2-chloro-N-{trans-4-(4-chlorophenyl)-1-[(1-methyl-1H-imidazol-4-yl)sulfonyl]pyrrolidin-3-yl}-3-(trifluoromethyl)benzamide] | ≥ 6.00 |  |
| Cn1cnc(S(=O)(=O)N2C[C@@H](NC(=O)c3ccccc3Cl)[C@H](c3ccccc3)C2)c1 (relative stereo) [Example 14, 2-chloro-N-{trans-1-[(1-methyl-1H-imidazol-4-yl)sulfonyl]-4-phenylpyrrolidin-3-yl}benzamide] | ≥ 6.00 |  |
| Cn1cnc(S(=O)(=O)N2C[C@@H](NC(=O)c3ccccc3F)[C@H](c3ccccc3)C2)c1 (relative stereo) [Example 17, 2-fluoro-N-{trans-1-[(1-methyl-1H-imidazol-4-yl)sulfonyl]-4-phenylpyrrolidin-3-yl}benzamide] | ≥ 5.00 |  |
| Cn1cnc(S(=O)(=O)N2C[C@@H](NC(=O)c3cccc(F)c3)[C@H](c3ccccc3)C2)c1 (relative stereo) [Example 18, 3-fluoro-N-{trans-1-[(1-methyl-1H-imidazol-4-yl)sulfonyl]-4-phenylpyrrolidin-3-yl}benzamide] | ≥ 5.00 |  |
| Cn1cnc(S(=O)(=O)N2C[C@@H](NC(=O)c3ccc(F)cc3)[C@H](c3ccccc3)C2)c1 (relative stereo) [Example 19, 4-fluoro-N-{trans-1-[(1-methyl-1H-imidazol-4-yl)sulfonyl]-4-phenylpyrrolidin-3-yl}benzamide] | ≥ 5.00 |  |
| Cc1ccccc1C(=O)N[C@@H]1CN(S(=O)(=O)c2cn(C)cn2)C[C@H]1c1ccccc1 (relative stereo) [Example 22, 2-methyl-N-{trans-1-[(1-methyl-1H-imidazol-4-yl)sulfonyl]-4-phenylpyrrolidin-3-yl}benzamide] | ≥ 5.00 |  |
| Cc1cccc(C(=O)N[C@@H]2CN(S(=O)(=O)c3cn(C)cn3)C[C@H]2c2ccccc2)c1 (relative stereo) [Example 23, 3-methyl-N-{trans-1-[(1-methyl-1H-imidazol-4-yl)sulfonyl]-4-phenylpyrrolidin-3-yl}benzamide] | ≥ 5.00 |  |
| Cn1cnc(S(=O)(=O)N2C[C@@H](NC(=O)c3ccccc3)[C@H](c3ccccc3)C2)c1 (relative stereo) [Example 25, N-{trans-1-[(1-methyl-1H-imidazol-4-yl)sulfonyl]-4-phenylpyrrolidin-3-yl}benzamide] | ≥ 5.00 |  |
